Reference: the NIST ThermoML archive (doi:10.1016/j.fluid.2008.09.004)
Numbers after ± are expanded uncertainties.

Tests used:
[1] = excess molar enthalpy (molar enthalpy of mixing); xn = mol fraction of the nth substance listed; conditions: 303.15 K, 101 kPa, Liquid, Calvet calorimetry
[2] = xn = mol fraction of the nth substance listed; conditions: 101 kPa, Liquid, Vibrating tube method

CCCCn1cc[n+](C)c1.O=S(=O)([O-])C(F)(F)F [1-butyl-3-methylimidazolium trifluoromethanesulfonate] + CCO
[1]
Conditions | excess molar enthalpy [kcal/mol]
x1 = 0.0987 | 0.23 ± 0.0184
x1 = 0.2029 | 0.363 ± 0.0287
x1 = 0.2948 | 0.416 ± 0.0335
x1 = 0.4016 | 0.424 ± 0.0335
x1 = 0.4928 | 0.406 ± 0.0335
x1 = 0.5952 | 0.353 ± 0.0287
x1 = 0.6832 | 0.291 ± 0.0234
x1 = 0.8026 | 0.199 ± 0.016
x1 = 0.8759 | 0.129 ± 0.0103

mass density [kg/m3], [2]
Conditions | 293.15 K | 298.15 K | 303.15 K | 308.15 K | 313.15 K | 318.15 K
x1 = 0.0522 | 881 ± 0.4 | 876.7 ± 0.4 | 872.5 ± 0.4 | 868.2 ± 0.4 | 863.9 ± 0.4 | 859.5 ± 0.4
x1 = 0.0982 | 944.5 ± 0.3 | 940.2 ± 0.3 | 935.9 ± 0.3 | 931.7 ± 0.3 | 927.4 ± 0.3 | 923 ± 0.3
x1 = 0.1976 | 1041.9 ± 0.3 | 1037.7 ± 0.3 | 1033.4 ± 0.3 | 1029.2 ± 0.3 | 1025 ± 0.3 | 1020.7 ± 0.3
x1 = 0.2999 | 1111.4 ± 0.2 | 1107.2 ± 0.2 | 1103 ± 0.2 | 1098.8 ± 0.2 | 1094.7 ± 0.2 | 1090.5 ± 0.3
x1 = 0.3996 | 1160.3 ± 0.2 | 1156.1 ± 0.2 | 1152 ± 0.2 | 1147.9 ± 0.2 | 1143.8 ± 0.2 | 1139.6 ± 0.2
x1 = 0.4973 | 1196.9 ± 0.2 | 1192.8 ± 0.2 | 1188.7 ± 0.2 | 1184.7 ± 0.2 | 1180.6 ± 0.2 | 1176.5 ± 0.2
x1 = 0.5923 | 1225.3 ± 0.2 | 1221.2 ± 0.2 | 1217.2 ± 0.2 | 1213.1 ± 0.2 | 1209.1 ± 0.2 | –
x1 = 0.6898 | 1249.1 ± 0.2 | 1245 ± 0.2 | 1241 ± 0.2 | 1237 ± 0.2 | 1233 ± 0.2 | –
x1 = 0.7868 | 1268.5 ± 0.2 | 1264.5 ± 0.2 | 1260.5 ± 0.2 | 1256.5 ± 0.2 | 1252.5 ± 0.2 | –
x1 = 0.8756 | 1283.7 ± 0.2 | 1279.7 ± 0.2 | 1275.7 ± 0.2 | 1271.7 ± 0.2 | 1267.7 ± 0.2 | –
x1 = 0.9283 | 1291.6 ± 0.3 | 1287.6 ± 0.3 | 1283.7 ± 0.2 | 1279.7 ± 0.2 | 1275.8 ± 0.2 | –
